{"source": "paper PMC5218480", "about": "(PLoS ONE, 2017)", "test_system": "MV-4-11 cells", "assay": "Gene expression microarray analysis (Affymetrix PrimeView) and GSEA", "format": "cell-based, human", "design": "RFU PODN (11730768_x_at) / Fold change /veh PODN (11730768_x_at) / RFU LINC00158 (11744669_a_at) / Fold change /veh LINC00158 (11744669_a_at) / RFU DUSP10 (11751237_a_at) / Fold change /veh DUSP10 (11751237_a_at) / RFU ID3 (11757404_x_at) / Fold change /veh ID3 (11757404_x_at) / RFU PLEKHG5 (11737974_s_at) / Fold change /veh PLEKHG5 (11737974_s_at) / RFU LRRC4B (11730491_at) / Fold change /veh LRRC4B (11730491_at) / RFU GIMAP4 (11747438_a_at) / Fold change /veh GIMAP4 (11747438_a_at) / RFU KRT8 (11758183_x_at) / Fold change /veh KRT8 (11758183_x_at) / RFU CNN1 (11734310_a_at) / Fold change /veh CNN1 (11734310_a_at) / RFU VPS37D (11726825_at) / Fold change /veh VPS37D (11726825_at) / RFU C10orf10 (11716522_x_at) / Fold change /veh C10orf10 (11716522_x_at) / RFU KIR2DL2 /// KIR2DL4 /// KIR2DL5A /// KIR2DL5B /// KIR2DS1 /// KIR2DS2 /// KIR2DS3 /// KIR2DS4 /// KIR3DL3 /// KIR3DL3 /// KIR3DS1 (11738374_at) / Fold change /veh KIR2DL2 /// KIR2DL4 /// KIR2DL5A /// KIR2DL5B /// KIR2DS1 /// KIR2DS2 /// KIR2DS3 /// KIR2DS4 /// KIR3DL3 /// KIR3DL3 /// KIR3DS1 (11738374_at) / RFU C1QL1 (11718748_at) / Fold change /veh C1QL1 (11718748_at) / RFU TMPRSS4 (11747572_a_at) / Fold change /veh TMPRSS4 (11747572_a_at) / RFU HAMP (11756126_x_at) / Fold change /veh HAMP (11756126_x_at) / RFU RNFT2 (11725882_a_at) / Fold change /veh RNFT2 (11725882_a_at) / RFU NR4A2 (11747474_a_at) / Fold change /veh NR4A2 (11747474_a_at) / RFU ABCC12 (11746883_a_at) / Fold change /veh ABCC12 (11746883_a_at) / RFU TMEM136 (11760407_x_at) / Fold change /veh TMEM136 (11760407_x_at) / RFU CLDN22 /// WWC2 (11732394_at) / Fold change /veh CLDN22 /// WWC2 (11732394_at) / RFU HLA-DPB1 (11760878_x_at) / Fold change /veh HLA-DPB1 (11760878_x_at) / RFU SPINT1 (11716480_a_at) / Fold change /veh SPINT1 (11716480_a_at) / RFU GAP43 (11754022_s_at) / Fold change /veh GAP43 (11754022_s_at) / RFU A4GNT (11735810_at) / Fold change /veh A4GNT (11735810_at) / RFU PRB3 (11715151_x_at) / Fold change /veh PRB3 (11715151_x_at) / RFU TUBB4B (11761932_at) / Fold change /veh TUBB4B (11761932_at) / RFU CAPN14 (11732068_a_at) / Fold change /veh CAPN14 (11732068_a_at) / RFU TMCC2 (11721928_a_at) / Fold change /veh TMCC2 (11721928_a_at) / RFU IRGQ (11745062_a_at) / Fold change /veh IRGQ (11745062_a_at) / RFU FAM174B (11720279_a_at) / Fold change /veh FAM174B (11720279_a_at) / RFU TMPRSS4 (11748680_a_at) / Fold change /veh TMPRSS4 (11748680_a_at) / RFU FAM212B (11763350_a_at) / Fold change /veh FAM212B (11763350_a_at) / RFU PLEKHG5 (11743358_a_at) / Fold change /veh PLEKHG5 (11743358_a_at) / RFU ZSCAN30 (11745921_a_at) / Fold change /veh ZSCAN30 (11745921_a_at) / RFU CMKLR1 (11741424_a_at) / Fold change /veh CMKLR1 (11741424_a_at) / RFU LOC101060620 /// MAPK8IP1 (11723275_at) / Fold change /veh LOC101060620 /// MAPK8IP1 (11723275_at) / RFU SPTSSB (11747773_x_at) / Fold change /veh SPTSSB (11747773_x_at) / RFU PRSS12 (11739890_at) / Fold change /veh PRSS12 (11739890_at) / RFU BIN1 (11741810_x_at) / Fold change /veh BIN1 (11741810_x_at) / RFU WNT11 (11732464_a_at) / Fold change /veh WNT11 (11732464_a_at) / RFU C10orf10 (11716521_a_at) / Fold change /veh C10orf10 (11716521_a_at) / RFU C5orf56 (11738089_at) / Fold change /veh C5orf56 (11738089_at) / RFU CYB561 (11721691_x_at) / Fold change /veh CYB561 (11721691_x_at) / RFU ANKRD19P (11752326_a_at) / Fold change /veh ANKRD19P (11752326_a_at) / RFU OR2T12 /// OR2T33 /// OR2T8 (11738714_s_at) / Fold change /veh OR2T12 /// OR2T33 /// OR2T8 (11738714_s_at) / RFU VCAN (11748164_a_at) / Fold change /veh VCAN (11748164_a_at) / RFU JSRP1 (11732532_at) / Fold change /veh JSRP1 (11732532_at) / RFU KRTAP10-11 (11738290_x_at) / Fold change /veh KRTAP10-11 (11738290_x_at) / RFU MYO3A (11730013_a_at) / Fold change /veh MYO3A (11730013_a_at) / RFU EBF3 (11725865_a_at) / Fold change /veh EBF3 (11725865_a_at) / RFU CAMK2N1 (11719241_x_at) / Fold change /veh CAMK2N1 (11719241_x_at) / RFU C5orf56 (11738088_a_at) / Fold change /veh C5orf56 (11738088_a_at) / RFU OLFML3 (11715873_a_at) / Fold change /veh OLFML3 (11715873_a_at) / RFU LOC100653217 /// NTM (11731650_a_at) / Fold change /veh LOC100653217 /// NTM (11731650_a_at) / RFU MAPK11 (11762145_a_at) / Fold change /veh MAPK11 (11762145_a_at) / RFU FIZ1 (11724087_x_at) / Fold change /veh FIZ1 (11724087_x_at) / RFU OASL (11726364_x_at) / Fold change /veh OASL (11726364_x_at) / RFU SOX15 (11748057_x_at) / Fold change /veh SOX15 (11748057_x_at) / RFU CD79A (11719716_a_at) / Fold change /veh CD79A (11719716_a_at) / RFU HIST1H1D (11736915_at) / Fold change /veh HIST1H1D (11736915_at) / RFU CASKIN2 (11723855_a_at) / Fold change /veh CASKIN2 (11723855_a_at) / RFU LOC730098 (11760151_x_at) / Fold change /veh LOC730098 (11760151_x_at) / RFU OR4N2 (11742367_at) / Fold change /veh OR4N2 (11742367_at) / RFU PRRT2 (11749266_a_at) / Fold change /veh PRRT2 (11749266_a_at) / RFU SNX32 (11753110_a_at) / Fold change /veh SNX32 (11753110_a_at) / RFU CDHR5 (11726645_a_at) / Fold change /veh CDHR5 (11726645_a_at) / RFU RCAN1 (11760418_a_at) / Fold change /veh RCAN1 (11760418_a_at) / RFU FAM167A (11723789_a_at) / Fold change /veh FAM167A (11723789_a_at) / RFU FAM26E (11764081_at) / Fold change /veh FAM26E (11764081_at) / RFU ISYNA1 (11749810_s_at) / Fold change /veh ISYNA1 (11749810_s_at) / RFU ACY1 (11761880_at) / Fold change /veh ACY1 (11761880_at) / RFU 11764098_at / Fold change /veh 11764098_at / RFU SAMD14 (11745864_x_at) / Fold change /veh SAMD14 (11745864_x_at) / RFU NPB (11741838_a_at) / Fold change /veh NPB (11741838_a_at) / RFU TMPRSS6 (11731388_a_at) / Fold change /veh TMPRSS6 (11731388_a_at) / RFU KRTAP10-2 (11738614_at) / Fold change /veh KRTAP10-2 (11738614_at) / RFU ARHGAP8 /// PRR5-ARHGAP8 (11727945_x_at) / Fold change /veh ARHGAP8 /// PRR5-ARHGAP8 (11727945_x_at) / RFU KRTAP5-7 /// NADSYN1 (11734609_at) / Fold change /veh KRTAP5-7 /// NADSYN1 (11734609_at) / RFU RASL12 (11751679_a_at) / Fold change /veh RASL12 (11751679_a_at) / RFU CDKN2B (11736163_a_at) / Fold change /veh CDKN2B (11736163_a_at) / RFU PRF1 (11729649_at) / Fold change /veh PRF1 (11729649_at) / RFU, ZNF638 /// ZNF638-IT1 / Fold change vs veh, ZNF638 /// ZNF638-IT1 / RFU, PANK3 / Fold change vs veh, PANK3 / RFU, SH3YL1 / Fold change vs veh, SH3YL1 / RFU, ZEB2 / Fold change vs veh, ZEB2 / RFU, NRIP1 / Fold change vs veh, NRIP1 / RFU, PTTG1IP / Fold change vs veh, PTTG1IP / RFU, CAPN2 / Fold change vs veh, CAPN2 / RFU, MED14 / Fold change vs veh, MED14 / RFU, SNORA58 / Fold change vs veh, SNORA58 / RFU, C1orf63 / Fold change vs veh, C1orf63 / RFU, LRRFIP1 / Fold change vs veh, LRRFIP1 / RFU, NDUFAF7 / Fold change vs veh, NDUFAF7 / RFU, SLC12A2 / Fold change vs veh, SLC12A2 / RFU, IBTK / Fold change vs veh, IBTK / RFU, ESF1 / Fold change vs veh, ESF1 / Fold change vs veh, TMEM50B / RFU, TAOK1 / Fold change vs veh, TAOK1 / RFU, ACBD3 / Fold change vs veh, ACBD3 / RFU, TMA16 / Fold change vs veh, TMA16 / RFU, RWDD3 / Fold change vs veh, RWDD3 / RFU, BCAT1 / Fold change vs veh, BCAT1 / RFU, EDEM3 / Fold change vs veh, EDEM3 / RFU, TMEM33 / Fold change vs veh, TMEM33 / RFU, WDR75 / Fold change vs veh, WDR75 / RFU, AHCTF1 / Fold change vs veh, AHCTF1 / RFU, TFRC / Fold change vs veh, TFRC / RFU, ZDHHC17 / Fold change vs veh, ZDHHC17 / RFU, NOM1 / Fold change vs veh, NOM1 / RFU, ARL8B / Fold change vs veh, ARL8B / RFU, ZBTB11 / Fold change vs veh, ZBTB11 / RFU, TAMM41 / Fold change vs veh, TAMM41 / RFU, KIAA1704 /// LOC100996395 / Fold change vs veh, KIAA1704 /// LOC100996395 / RFU, ING1 / Fold change vs veh, ING1 / RFU, TRMT61B / Fold change vs veh, TRMT61B / RFU, FUBP3 / Fold change vs veh, FUBP3 / RFU, TP53 / Fold change vs veh, TP53 / RFU, TNKS2 / Fold change vs veh, TNKS2 / RFU, ZFP14 / Fold change vs veh, ZFP14 / RFU, ACTR2 / Fold change vs veh, ACTR2 / RFU, PPP3R1 / Fold change vs veh, PPP3R1 / RFU, PIK3R1 / Fold change vs veh, PIK3R1 / RFU, HNRNPA1 / Fold change vs veh, HNRNPA1 / RFU, RNF170 / Fold change vs veh, RNF170 / RFU, ZNF28 / Fold change vs veh, ZNF28 / RFU, RNGTT / Fold change vs veh, RNGTT / RFU, OGT / Fold change vs veh, OGT / RFU, BRD1 / Fold change vs veh, BRD1 / RFU, MARS / Fold change vs veh, MARS / RFU, ZNF655 / Fold change vs veh, ZNF655 / RFU, FAHD1 / Fold change vs veh, FAHD1 / RFU, BDP1 / Fold change vs veh, BDP1 / RFU, LRRCC1 / Fold change vs veh, LRRCC1 / RFU, ARID1A / Fold change vs veh, ARID1A / RFU, ZNF146 / Fold change vs veh, ZNF146 / RFU, ZNF330 / Fold change vs veh, ZNF330 / RFU, GPN3 / Fold change vs veh, GPN3 / RFU, C9orf123 / Fold change vs veh, C9orf123 / RFU, N4BP2L2 / Fold change vs veh, N4BP2L2 / RFU, ARFIP1 / Fold change vs veh, ARFIP1 / RFU, FAM179B / Fold change vs veh, FAM179B / RFU, BCL10 / Fold change vs veh, BCL10 / RFU, UHRF1BP1L / Fold change vs veh, UHRF1BP1L / RFU, BET1 / Fold change vs veh, BET1 / RFU, CNOT2 / Fold change vs veh, CNOT2 / RFU, ZNF268 / Fold change vs veh, ZNF268 / Fold change vs veh, ZNF507 / RFU, DGCR2 / Fold change vs veh, DGCR2 / RFU, WDSUB1 / Fold change vs veh, WDSUB1 / Fold change vs veh, HSP90B1 /// MIR3652 / RFU, ADSS / Fold change vs veh, ADSS / RFU, GK / Fold change vs veh, GK / RFU, ZNF148 / Fold change vs veh, ZNF148 / RFU, TAF9 / Fold change vs veh, TAF9 / RFU, SLC1A5 / Fold change vs veh, SLC1A5 / RFU, SLMO2 / Fold change vs veh, SLMO2 / RFU, ABCC4 / Fold change vs veh, ABCC4 / RFU, LOC101060439 /// RAP1B / Fold change vs veh, LOC101060439 /// RAP1B / RFU, RFX7 / Fold change vs veh, RFX7 / RFU, GTPBP10 / Fold change vs veh, GTPBP10 / RFU, CNEP1R1 / Fold change vs veh, CNEP1R1 / RFU, BIVM-ERCC5 /// ERCC5 / Fold change vs veh, BIVM-ERCC5 /// ERCC5 / RFU, ILF3 / Fold change vs veh, ILF3 / RFU 11762660_at / Fold change /veh 11762660_at / RFU VCAN (11757783_s_at) / Fold change /veh VCAN (11757783_s_at) / RFU DDX43 (11728927_at) / Fold change /veh DDX43 (11728927_at) / RFU KRT8 (11758188_x_at) / Fold change /veh KRT8 (11758188_x_at) / RFU NKD1 (11759106_at) / Fold change /veh NKD1 (11759106_at) / RFU SRD5A1 (11742802_a_at) / Fold change /veh SRD5A1 (11742802_a_at) / RFU TPSAB1 /// TPSB2 (11721975_s_at) / Fold change /veh TPSAB1 /// TPSB2 (11721975_s_at) / RFU GSTM3 (11746129_a_at) / Fold change /veh GSTM3 (11746129_a_at) / RFU IL23R (11737362_x_at) / Fold change /veh IL23R (11737362_x_at) / RFU TMEM51 (11727254_a_at) / Fold change /veh TMEM51 (11727254_a_at) / RFU PIWIL2 (11732686_x_at) / Fold change /veh PIWIL2 (11732686_x_at) / RFU ORM1 (11744905_x_at) / Fold change /veh ORM1 (11744905_x_at) / RFU CCDC152 (11743942_at) / Fold change /veh CCDC152 (11743942_at) / RFU ECM1 (11717891_a_at) / Fold change /veh ECM1 (11717891_a_at) / RFU IL23R (11748794_a_at) / Fold change /veh IL23R (11748794_a_at) / RFU TNFAIP8L3 (11732012_x_at) / Fold change /veh TNFAIP8L3 (11732012_x_at) / RFU MBOAT4 (11741988_at) / Fold change /veh MBOAT4 (11741988_at) / RFU 11764193_at / Fold change /veh 11764193_at / RFU TMEM53 (11763286_at) / Fold change /veh TMEM53 (11763286_at) / RFU MAGEB2 (11727129_at) / Fold change /veh MAGEB2 (11727129_at) / RFU TMEM200A (11744735_a_at) / Fold change /veh TMEM200A (11744735_a_at) / RFU CCDC152 (11751479_a_at) / Fold change /veh CCDC152 (11751479_a_at) / RFU FAM211A (11726209_a_at) / Fold change /veh FAM211A (11726209_a_at) / RFU RGS16 (11746705_a_at) / Fold change /veh RGS16 (11746705_a_at) / RFU VCAN (11755009_s_at) / Fold change /veh VCAN (11755009_s_at) / RFU RHOB (11743442_s_at) / Fold change /veh RHOB (11743442_s_at) / RFU RGS16 (11720943_a_at) / Fold change /veh RGS16 (11720943_a_at) / RFU RGS16 (11720944_at) / Fold change /veh RGS16 (11720944_at) / RFU, VPS4B / Fold change vs veh, VPS4B / RFU, CREB1 / Fold change vs veh, CREB1 / RFU, DNAJC13 / Fold change vs veh, DNAJC13 / RFU, GNAQ / Fold change vs veh, GNAQ / RFU, CDK5R1 / Fold change vs veh, CDK5R1 / RFU, ZRANB3 / Fold change vs veh, ZRANB3 / RFU, CUL4A / Fold change vs veh, CUL4A / RFU, CCNY / Fold change vs veh, CCNY / RFU, UFL1 / Fold change vs veh, UFL1 / RFU, COG3 / Fold change vs veh, COG3 / RFU, DIAPH2 / Fold change vs veh, DIAPH2 / RFU, SKA2 / Fold change vs veh, SKA2 / RFU, AFF3 / Fold change vs veh, AFF3 / RFU, LMF1 / Fold change vs veh, LMF1 / RFU, IPO11 / Fold change vs veh, IPO11 / RFU, DFFB / Fold change vs veh, DFFB / RFU, FOXP1 / Fold change vs veh, FOXP1 / RFU, CARD8 / Fold change vs veh, CARD8 / RFU, STRN3 / Fold change vs veh, STRN3 / RFU, ADK / Fold change vs veh, ADK / RFU, RASSF2 / Fold change vs veh, RASSF2 / RFU, WIPF1 / Fold change vs veh, WIPF1 / RFU, LARP1B / Fold change vs veh, LARP1B / RFU, RASA1 / Fold change vs veh, RASA1 / RFU, RB1 / Fold change vs veh, RB1 / RFU, PPFIA1 / Fold change vs veh, PPFIA1 / RFU, MAT2A / Fold change vs veh, MAT2A / RFU, CCT5 / Fold change vs veh, CCT5 / RFU, WDR92 / Fold change vs veh, WDR92 / RFU, CUX1 / Fold change vs veh, CUX1 / RFU, TTC7A / Fold change vs veh, TTC7A / RFU, TMEM135 / Fold change vs veh, TMEM135 / RFU, DEPTOR / Fold change vs veh, DEPTOR / RFU, CPM / Fold change vs veh, CPM / RFU, DNAJB6 / Fold change vs veh, DNAJB6 / RFU, CACNA2D3 / Fold change vs veh, CACNA2D3 / RFU, DTX4 / Fold change vs veh, DTX4 / RFU, TFCP2 / Fold change vs veh, TFCP2 / RFU, GMCL1 /// GMCL1P1 / Fold change vs veh, GMCL1 /// GMCL1P1 / RFU, AEBP2 / Fold change vs veh, AEBP2 / RFU, SNHG1 /// SNORD22 /// SNORD25 /// SNORD26 /// SNORD27 /// SNORD28 /// SNORD29 /// SNORD31 / Fold change vs veh, SNHG1 /// SNORD22 /// SNORD25 /// SNORD26 /// SNORD27 /// SNORD28 /// SNORD29 /// SNORD31 / Fold change (Aza/veh), C12orf56 (ProbeSet 11735607_a_at) / Fold change (ACY-1035/veh), C12orf56 (ProbeSet 11735607_a_at) / Fold change (Aza/veh), FGFR1OP (ProbeSet 11751329_s_at) / Fold change (ACY-1035/veh), FGFR1OP (ProbeSet 11751329_s_at) / Fold change (Aza/veh), VPS36 (ProbeSet 11739960_a_at) / Fold change (ACY-1035/veh), VPS36 (ProbeSet 11739960_a_at) / RFU SYPL1 (11715823_x_at) / Fold change /veh SYPL1 (11715823_x_at) / RFU IGFBP7 (11715501_s_at) / Fold change /veh IGFBP7 (11715501_s_at) / RFU REEP3 (11722064_at) / Fold change /veh REEP3 (11722064_at) / RFU IGLL1 (11728026_x_at) / Fold change /veh IGLL1 (11728026_x_at): dose or concentration left out as unconfirmed", "details": "MV-4-11 cells, 48 hours", "data": [{"smiles": "Nc1ccc(-c2cccs2)cc1NC(=O)c1ccc2c(c1)cc(C1CC1)n2CCN1CCOCC1", "note": "[ACY-1035]", "values": [{"measurement": "RFU PLEKHG5 (11743358_a_at)", "result": 36.52, "unit": "RFU"}]}]}
